Test results published in PubChem BioAssay (NCI).
“And” between values parts separate entries of the source, which are not always exact repeats. Equal values may be shown once.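 Compound exposure: 48 hours, 5 concentrations, 96-well plates. GI50 marks 50% less growth. TGI marks complete inhibition of growth.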

What was measured:
Assay in all cases: inhibition of tumour cell growth, NCI panel, 48 h
[1] = system: M19-MEL melanoma
[2] = system: MDA-N
[3] = system: SNB-78 CNS
[4] = system: T-47D breast
[5] = system: HS 578T breast
[6] = system: XF 498 CNS
[7] = system: DLD-1 colon
[8] = system: DMS 114 small cell lung

SMILES: CCC[CH2][Sn]1([CH2]CCC)[O]C(=O)c2ccc(N)cc2[O]1
- TGI [1]: 1.66 µM
- GI50 [2]: 0.668 µM
- TGI [2]: 1.97 µM
- GI50 [3]: 0.0801 µM
- TGI [3]: 1.18 µM

SMILES: COC(=O)[C@H]1[C@H]2C[C@@H]3c4[nH]c5cc(OC)ccc5c4CCN3C[C@H]2C[C@@H](OC(=O)/C=C/c2cc(OC)c(OC)c(OC)c2)[C@@H]1OC
- GI50 [4]: 3.15 µM
- TGI [4]: 9.54 µM
- GI50 [5]: 5.77 µM
- TGI [5]: 39.5 µM

SMILES: [N-]=[N+]=CC(=O)COC(=O)c1ccccc1
- TGI [4]: > 100 µM
- TGI [2]: > 100 µM

SMILES: O=C(O)Cc1ccccc1CCc1ccccc1Cl
- TGI [1]: > 100 µM
- TGI [6]: > 100 µM
- TGI [7]: > 100 µM
- TGI [3]: > 100 µM

SMILES: C/C=C(/C)c1cnc(CC(C)C)c(=O)[nH]1
- TGI [4]: > 100 µM
- TGI [2]: > 100 µM
- TGI [5]: > 100 µM

SMILES: CCOC(=O)Nc1nc2cc(OCC)ccc2s1
- GI50 [4]: 35 µM
- TGI [4]: > 100 µM
- GI50 [5]: 50 µM
- TGI [5]: > 100 µM

SMILES: CN1c2ccccc2S(=O)(=O)n2c(CCc3ccccc3)nnc21
- TGI [4]: > 100 µM
- TGI [2]: > 100 µM
- TGI [5]: > 100 µM

SMILES: O=C(Nc1ccc(Br)cc1)Nc1nn(C(=O)Nc2ccc(Br)cc2)c2ccccc12
- GI50 [4]: 28.1 µM
- TGI [4]: > 93 µM
- GI50 [5]: 13.7 µM
- TGI [5]: 55.8 µM

SMILES: CC[C@H](Nc1nc(N)nc(C2CC2)c1C#N)c1nc2cccc(NCc3ccc(C(=O)NO)cc3)c2c(=O)n1-c1ccccc1
- GI50 [4]: 1.82 µM
- TGI [4]: 5.78 µM
- GI50 [5]: 2.8 µM
- TGI [5]: 9.51 µM

SMILES: CCN(CC)CCOc1c(OC)c(Br)cc2c(C)c(C(=O)OC)oc12
- GI50 [4]: 0.188 µM
- TGI [4]: 0.488 µM
- GI50 [5]: 1.44 µM
- TGI [5]: 3.82 µM

SMILES: COc1cc2c3c(c1OC)C1(C=CC(=O)C=C1)CC3NCC2 (stereo not given)
- TGI [4]: > 100 µM
- TGI [2]: > 100 µM
- TGI [5]: > 100 µM

SMILES: CC(=O)c1cccc(-c2cccc(-c3ccn(CCN4CCOCC4)n3)c2)c1
- GI50 [4]: 17.4 µM
- TGI [4]: > 20 µM
- GI50 [5]: > 20 µM
- TGI [5]: > 20 µM

SMILES: C[C@]12CC[C@H]3[C@@H](CC[C@]4(O)C[C@@H](O)CC[C@]34CO)[C@@]1(O)CC[C@@H]2C1=CC(=O)OC1
- TGI [4]: 13.9 µM
- TGI [2]: 14.4 µM
- TGI [5]: > 100 µM

SMILES: Oc1c(Cl)cc(Cl)cc1Sc1cc(Cl)cc(Cl)c1O
- GI50 [4]: 3.23 µM and 2.45 µM
- TGI [4]: 18 µM and 7.78 µM
- GI50 [5]: 2.47 µM and 2.32 µM
- TGI [5]: 9.48 µM and 8.31 µM

SMILES: C[C@]12CC[C@@H](OC(=O)N(CCCl)N=O)C[C@@H]1CC[C@@H]1[C@@H]2CC[C@]2(C)C(=O)CC[C@@H]12
- GI50 [4]: 2.82 µM
- TGI [4]: 55.9 µM
- GI50 [5]: 3.04 µM
- TGI [5]: 17.9 µM

SMILES: O=C(O)c1cccc(/C=C/c2ccccc2)c1
- TGI [4]: > 100 µM
- TGI [5]: > 100 µM

SMILES: CC[C@]1(O)C[C@@H]2CN(CCc3c([nH]c4ccccc34)[C@@](C(=O)OC)(c3cc4c(cc3OC)N(C)[C@H]3[C@@](O)(C(N)=O)[C@H](O)[C@]5(CC)[C@@H]6C[C@@H]6CN6CC[C@]43[C@@H]65)C2)C1
- GI50 [5]: < 0.00333 µM
- TGI [5]: > 21.3 µM

SMILES: N=c1ccc2nc3c(cc(N)c4ccccc43)oc-2c1
- GI50 [4]: 1.09 µM
- TGI [4]: 2.79 µM
- GI50 [5]: 0.201 µM
- TGI [5]: 0.622 µM

SMILES: CC1(C)C(=O)C=CC2(C)C1CC(O)C1(C)C2CCC2(C)C(c3ccoc3)OC(=O)C3OC321 (stereo not given)
- TGI [2]: 41.8 µM

SMILES: CNCCNc1nc2ccccc2c2c(=O)c3cc(OC)ccc3sc12
- GI50 [4]: 1.71 µM
- TGI [4]: 3.66 µM
- GI50 [5]: 1.84 µM
- TGI [5]: 4.33 µM

SMILES: CCOC(=O)c1c2c(n(Cc3ccccc3)c1C)-c1nc(Cc3ccccc3)[nH]c1C(=O)C2=O
- GI50 [4]: 0.496 µM
- TGI [4]: 2.64 µM
- GI50 [5]: 2.26 µM
- TGI [5]: 5.34 µM

SMILES: O=C(N/N=C/c1ccc(Cl)cc1)c1[nH]c2ccc(Cl)cc2c1-c1ccccc1
- GI50 [4]: 38.2 µM
- TGI [4]: > 100 µM

SMILES: CCCCCCNC(=O)n1cc(F)c(=O)[nH]c1=O
- GI50 [4]: 11.7 µM
- TGI [4]: 47.5 µM
- GI50 [5]: 52 µM
- TGI [5]: > 100 µM

SMILES: COc1cc2ncnc3c2cc1OCCCCCN(C)Cc1ccc(Br)cc1N3
- GI50 [4]: 0.643 µM and 0.446 µM
- TGI [4]: 85.4 µM and 9.5 µM
- GI50 [5]: 10.2 µM and 1.52 µM
- TGI [5]: > 100 µM

SMILES: COC(=O)[C@]1(C)CCC[C@@]2(C)[C@@H]3C[C@@H]4[C@H]5C[C@@]3(CC[C@@H]21)C[C@@]45C
- TGI [4]: 62.2 µM
- TGI [2]: 31.8 µM
- TGI [5]: 47.9 µM

SMILES: Cc1nn(CNc2ccccc2C(F)(F)F)c(=S)n1/N=C/c1ccc(F)cc1
- GI50 [4]: > 100 µM
- TGI [4]: > 100 µM
- GI50 [5]: 72.3 µM
- TGI [5]: > 100 µM

SMILES: COc1ccc([C@@H](O)c2cc(-c3ncnc4cc(N5CCOCC5)ccc34)c(F)cc2Cl)nn1
- GI50 [4]: 0.228 µM
- TGI [4]: 1.44 µM
- GI50 [5]: 0.75 µM
- TGI [5]: 15.3 µM

SMILES: COc1cc(/C=C2\CN(C(=O)CCN3CCC(=NO)CC3)C/C(=C\c3cc(OC)c(OC)c(OC)c3)C2=O)cc(OC)c1OC
- GI50 [4]: 0.803 µM
- TGI [4]: 10.6 µM
- GI50 [5]: 0.441 µM
- TGI [5]: 13.5 µM

SMILES: NC(=O)c1csc(C2CCC(CO)O2)n1 (stereo not given)
- TGI [1]: > 100 µM
- TGI [8]: > 100 µM
- TGI [3]: > 100 µM
